The record followed here is patent US20210113540A1, “TREATMENT AGENT AND PHARMACEUTICAL COMPOSITION FOR GLIOMA” (NATIONAL UNIVERSITY CORPORATION HOKKAIDO UNIVERSITY, priority 2018, published 2021).

Where two headings read alike, the source gives them in different places. A value given as a limit tells only on which side of the number the result lay.

The assay deals with Glioma-initiating cell E6R. Nature of the assay: Cell growth test (MTT) on GICR strain E6R. It counts as cell-based. The note with it: Homo sapiens, 72 h. As to the method:
GICR strain: Cell growth test was performed using E6R (Stem Cells. 2016 August; 34(8):2016-25.).
Cell culture solutions were obtained by mixing a medium prepared by adding various compounds, bFGF (Peprotech, 100-18B) and EGF (Peprotech, 100-15) to DMEM/Ham's F-12 medium (SIGMA, D8062) and a medium prepared by adding FCS (Hyclone, SH30910.03) to DMEM medium (Nacalai tesque, 08458-45) to a concentration of 10% for use.
Each compound adjusted to a predetermined concentration was dispensed into a 96-well plate (Falcon, 353072) at 80 μL/well, and E6 cells and E6R cells were seeded on the 96-well plate at 1000 cells/80 μL/well. After 3 days, 10 μL of an MTT reagent (DOJINDO, 341-01823) was added, the cells were incubated at 37° C. for 3 hours, the culture solution was removed, and 100 μL of DMSO was added. The absorbance at 570 nm was measured using Bio-Rad iMark (Bio-Rad, 168-1130JA). The growth inhibition rate at each test compound concentration was calculated by the following formula using the absorbance as an index of the viable cell count.
The growth inhibition rate at each compound concentration was determined, and the 50% growth inhibition concentration GI50 (μmol/L)] was calculated using XLfit. Growth inhibition rate (%)=(Amount of luminescence from wells supplemented with test compound)/(Amount of luminescence from wells supplemented with DMSO)×100
GIC and GICR strain: Cell growth test was performed using E6, E6R, E16, and E16R (Stem Cells. 2016 August; 34(8): 2016-25.).

Where [1] appears, read: MTT after 3 days, read-out: ER6 GI50.
Setting [2] is: class of ER6 GI50, MTT after 3 days, read-out: Evaluation.

Turning to `O=C(O)c1cc(C2CC2)ccc1Nc1ccc2c(cnn2Cc2ccccc2)c1` [Compound 1, 2-((1-benzyl-1h-indazole-5-yl)amino)-5-cyclopropylbenzoate], the GI50 runs as follows: under setting [1], 0.0306 µM; under setting [2], < 1 µM.
In the same order, the values of `O=C(O)c1cc(C2CC2)cnc1Nc1ccc2c(ccn2CC2CCCCC2)c1` [Compound 2, 2-((1-(cyclohexylmethyl)-1H-indole-5-yl)amino)-5-cyclopropylnicotinic acid] are 0.0826 µM and < 1 µM.
For `O=C(O)c1cc(C2CC2)cnc1Nc1cccc2c1ccn2-c1ccccc1` [Compound 3, 5-cyclopropyl-2-((1-phenyl-1H-indole-4-yl)amino)nicotinic acid] the same measures were 0.011 µM and < 1 µM.
For `Cn1ccc2cc(Nc3ncc(C4CC4)cc3C(=O)O)cc(-c3ccccc3F)c21` [Compound 4, 5-cyclopropyl-2-((7-(2-fluorophenyl)-1-methyl-1H-indole-5-yl)amino)nicotinic acid] the same measures were 0.00169 µM and < 1 µM.
`Cn1ccc2cc(Nc3ncc(C4CC4)cc3C(=O)O)cc(-c3ccc(C(F)(F)F)cc3)c21` [Compound 5]: the GI50 under setting [1] is < 0.00014 µM and the GI50 under setting [2] was < 1 µM.
In the same order, the values of `Cn1ccc2cc(Nc3ncc(C4CC4)cc3C(=O)O)cc(-c3cccc(Cl)c3)c21` [Compound 6, 2-((7-(3-chlorophenyl)-1-methyl-1H-indole-5-yl)amino)-5-cyclopropylnicotinic acid] are 0.00223 µM and < 1 µM.
Turning to `Cn1ccc2cc(Nc3ncc(C4CC4)cc3C(=O)O)cc(-c3ccc(OC(F)(F)F)cc3)c21` [Compound 7, 5-cyclopropyl-2-((1-methyl-7-(4-(trifluoromethoxy)phenyl)-1H-indole-5-yl)amino)nicotinic acid], the GI50 was < 0.00014 µM under setting [1] and < 1 µM under setting [2].
With `O=C(O)c1cc(C2CC2)cnc1Nc1cccc2c(-c3ccccc3)cccc12` [Compound 9, 5-cyclopropyl-2-((5-phenylnaphthalene-1-yl)amino)nicotinic acid], the GI50 runs as follows: under setting [1], 0.00435 µM; under setting [2], < 1 µM.
In the same order, the values of `O=C(O)c1cc(C2CC2)cnc1Nc1ccc2c(-c3ccccc3)cccc2c1` [Compound 10, 5-cyclopropyl-2-((5-phenylnaphthalene-2-yl)amino)nicotinic acid] are 0.00177 µM and < 1 µM.
In the same order, the values of `Cn1ccc2cc(Nc3ncc(C4CC4)cc3C(=O)O)cc(-c3ccccc3)c21` [Compound 11, 5-cyclopropyl-2-((1-methyl-7-phenyl-1H-indole-5-yl)amino)nicotinic acid] are 0.00477 µM and < 1 µM.
In the same order, the values of `O=C(O)c1cc(C2CC2)cnc1Nc1ccc2c(ccn2-c2cccc(F)c2)c1` [Compound 12, 5-cyclopropyl-2-((1-(3-fluorophenyl)-1H-indole-5-yl)amino)nicotinic acid] are 0.0239 µM and < 1 µM.
As for `O=C(O)c1cc(C2CC2)cnc1Nc1cc2ccn(Cc3ccccc3)c2cc1F` [Compound 13, 2-((1-benzyl-6-fluoro-1H-indole-5-yl)amino)-5-cyclopropylnicotinic acid], the GI50 is 0.0114 µM under setting [1] and < 1 µM under setting [2].
With `O=C(O)c1cc(C2CC2)cnc1Nc1c(F)cc2c(ccn2Cc2ccccc2)c1F` [Compound 14, 2-((1-benzyl-4,6-difluoro-1H-indole-5-yl)amino)-5-cyclopropylnicotinic acid], the GI50 reads like this: under setting [1], 0.0476 µM; under setting [2], < 1 µM.
For `Cn1ccc2cc(Nc3ncc(C4CC4)cc3C(=O)O)cc(C3=CCOCC3)c21` [Compound 15, 5-cyclopropyl-2-((7-(3,6-dihydro-2H-pyran-4-yl)-1-methyl-1H-indole-5-yl)amino)nicotinic acid] the same measures were 0.0259 µM and < 1 µM.
For `O=C(O)c1cc(C2CC2)cnc1Nc1ccc2c(-c3ccccc3)nccc2c1` [Compound 16, 5-cyclopropyl-2-((1-phenylisoquinoline-6-yl)amino)nicotinic acid] the same measures were 0.00319 µM and < 1 µM.
For `Cn1ccc2cc(Nc3ncc(C4CC4)cc3C(=O)O)cc(-c3ccc(C#N)cc3)c21` [Compound 17, 2-((7-(4-cyanophenyl)-1-methyl-1H-indole-5-yl)amino)-5-cyclopropylnicotinic acid] the same measures were 0.00296 µM and < 1 µM.
In the case of `Cn1ccc2cc(Nc3ncc(C4CC4)cc3C(=O)O)cc(-c3ccc(Cl)cc3)c21` [Compound 18, 2-((7-(4-chlorophenyl)-1-methyl-1H-indole-5-yl)amino)-5-cyclopropylnicotinic acid], the GI50 under setting [1] was determined as 0.00062 µM and the GI50 under setting [2] was < 1 µM.
In the same order, the values of `O=C(O)c1cc(C2CC2)ccc1Nc1cccc2c1ccc(=O)n2-c1ccccc1` [Compound 19, 5-cyclopropyl-2-((2-oxo-1-phenyl-1,2-dihydroquinoline-5-yl)amino)benzoic acid] are 0.0058 µM and < 1 µM.
In the same order, the values of `Cn1ccc2cc(Nc3ncc(C4CC4)cc3C(=O)O)cc(C3=CCCCC3)c21` [Compound 20] are 0.00036 µM and < 1 µM.
